Source: PubChem BioAssay (NCI)
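Values below derive from 48-hour exposures of cells grown in 96-well plates, with endpoints linearly interpolated between the two concentrations bracketing the appropriate inhibition level. GI50: concentration for 50% inhibition of growth. TGI marks complete inhibition of growth.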 *1 amine or outer side, *2 acyl side, *3 side chain or, on linkers, in order; H or OH if unused. Where a SMILES comes first, the peptide text is derived from it. Bridges are numbered along the chain shown (N, C = ends). Roman numbers before positions name the chains, in order. X23 = CCCCCCCCCCCCCCC(=O)NC(CCCCN[*:2])C(=O)CN1CCCC1C(=O)[*:1]

Columns and labels:
Assay in all cases: NCI-60 cell line screen, 48 h
[1] = system: RPMI-8226 leukemia
[2] = system: KM12 colon
[3] = system: SW-620 colon
[4] = system: LOX IMVI melanoma
[5] = system: HL-60(TB) leukemia
[6] = system: NCI-H522 lung
[7] = system: IGROV1 ovarian
[8] = system: CCRF-CEM leukemia
[9] = system: HOP-62 NSCLC
[10] = system: HCT-116 colon

Compound	TGI [1] [µM]	TGI [2] [µM]	TGI [3] [µM]	TGI [4] [µM]	TGI [5] [µM]	TGI [6] [µM]	TGI [7] [µM]	TGI [8] [µM]	TGI [9] [µM]	TGI [10] [µM]	GI50 [1] [µM]	GI50 [2] [µM]	GI50 [3] [µM]	GI50 [5] [µM]	GI50 [6] [µM]	GI50 [7] [µM]	GI50 [8] [µM]	GI50 [9] [µM]	GI50 [10] [µM]
C[As](C)SCC(NC(=O)CCC(N)C(=O)O)C(=O)NCC(=O)O.Cl.c1ccncc1 (stereo unspecified)	1.56	3.81	6.59	1.02	0.878	0.267	6.18	6.31	5.64	1.53	–	–	–	–	–	–	–	–	–
OCCSCc1cc(Cl)cc(Cl)c1O	> 100	> 100	> 100	> 100	–	> 100	> 100	> 100	> 100	> 100	–	–	–	–	–	–	–	–	–
O=C1CC(NC2CC(=O)c3c(Br)sc(Br)c32)c2c(Br)sc(Br)c21 (stereo unspecified)	–	6.03	4.95	4.68	7.65	3.69	8.43	3.17	12.2	6.46	–	–	–	–	–	–	–	–	–
CCCCCCCCCCCCCCC(=O)NC(CCCCNC(=O)C1CCCN1C(=O)C(CCCCN)NC(=O)C(CCCCN)NC(=O)C(CCCCN)NC(=O)C(CCCNC(=N)N)NC(=O)C(CCCCN)NC(=O)C(N)C(C)C)C(=O)CN1CCCC1C(=O)NCC(=O)NC(Cc1ccccc1)C(=O)N1CCCC1C(=O)NC(CO)C(=O)NC(Cc1ccc(O)cc1)C(=O)NC(CCCCN)C(=O)NC(CC(C)C)C(=O)NC(CCCNC(=N)N)C(=O)N1CCCC1C(=O)NCC(N)=O (stereo unspecified) (I: GFPSYKLRPG-NH2 / II: H-VKRKKKP; linker I:N-II:C via X23; configuration not given here)	30	3.85	> 100	–	94.8	66.3	52.4	35.1	69.5	33.1	11	1.89	30	22.5	21.8	14.8	16.5	27.8	14.3
CC(C)(C)OC(=O)N1CCCC1C(=O)NCCNc1ccc(NCCNC(=O)C2CCCN2C(=O)OC(C)(C)C)c2c1C(=O)c1ccccc1C2=O (stereo unspecified)	0.0538	41.7	29.8	26.3	> 100	29.7	31.7	> 100	33.2	26	–	–	–	–	–	–	–	–	–
O=C1CSc2sc(=S)sc2S1	> 100	> 100	> 100	> 100	> 100	> 100	> 100	> 100	> 100	> 100	–	–	–	–	–	–	–	–	–
COC1=CCC2=C(CCN(C(=O)C3CC3)C2Cc2ccc(OC)c(O)c2)C1 (stereo unspecified)	> 100	> 100	> 100	> 100	91.7	82.4	> 100	> 100	> 100	> 100	–	–	–	–	–	–	–	–	–
O=C(Nc1sccc1S(=O)(=O)c1ccc(Cl)cc1)c1ccc(Cl)cc1Cl	> 100	> 100	> 100	> 100	> 100	> 100	> 100	> 100	> 100	> 100	–	–	–	–	–	–	–	–	–
CCSC1=C(C#N)C2(CCCCC2)C2=C(CC(C)(C)CC2=O)N1	> 100	> 100	> 100	> 100	> 100	> 100	> 100	> 100	–	> 100	–	–	–	–	–	–	–	–	–
Cc1cc(O)c2cc3c(O)c(O)ccc3cc2c1	> 100	2.32	> 28.9	> 42.3	4.16	3.98	10.8	22.6	10.3	–	–	–	–	–	–	–	–	–	–
O=CNNC(=O)CSc1nc2ccc(I)cc2c(=O)n1Cc1ccccc1	23.8	> 100	> 100	69.1	89.7	57.4	> 100	> 100	> 100	49.5	–	–	–	–	–	–	–	–	–
O=S(=O)(c1ccccc1)[C@@H]1[C@H]2C=C[C@](CS)(O2)[C@H]1S(=O)(=O)c1ccccc1	–	> 100	30.6	> 100	> 100	31.7	> 100	8.33	> 100	26	–	–	–	–	–	–	–	–	–
NS(=O)(=O)c1ccc(N=Nc2ccc(O)c(O)c2)cc1	39.7	32.5	41.4	36	86.9	3.1	28.3	60	56.3	26.2	–	–	–	–	–	–	–	–	–
CC(=O)OCC1OC(N2C(=O)CC(N)=Nc3ccccc32)C(OC(C)=O)C(OC(C)=O)C1OC(C)=O (stereo unspecified)	49.8	> 100	> 100	> 100	> 100	–	> 100	> 100	> 100	> 100	–	–	–	–	–	–	–	–	–
Clc1ccc(/C=C/c2nc(-c3ccc(Cl)cc3)cn3c2nc2ccccc23)cc1	> 100	> 100	> 100	> 100	> 100	–	> 100	> 100	> 100	> 100	–	–	–	–	–	–	–	–	–
